Source: a melting point compilation (Tetko et al.; mined from patent text by program, amines drawn as free bases though some values may be those of a salt)

SMILES	melting point [°C]
CCOC(=O)c1cnc2c(OC)csc2c1Cl	135 to 137
Cn1cc(S(=O)(=O)Cl)c(=O)c2cc(F)c(Cl)cc21	> 300
CCCn1c(=O)c2c(NC)n(C(=O)C(C)C)nc2n(Cc2cccc(Cl)c2)c1=O	154 to 156
N=C(N)Nc1ncc(CO)s1	168 to 170
NCCCCOc1ccc2c(c1)NC(=O)C(CC(=O)O)C2 (centres undefined)	229 to 230
CCCCCCS(=O)(=O)c1c(O)cc(C)oc1=O	65 to 66
CCOC(=O)C1(Br)Oc2ccc(OC(C)=O)cc2OC1Br (centres undefined)	58
N#CCCn1cccc1-c1ccc2cnc(Nc3ccc(N4CCOCC4)cc3)nn12	85 to 89
COc1cc2c(cc1OC)N(C(=O)c1ccc(-c3ccccc3C(F)(F)F)c(C)c1)Cc1ccc(C(=O)N3CCC(=O)CC3)n1C2	132 to 134
Cn1c(=S)n(C)c(=O)n(-c2cc(O)c(Cl)cc2F)c1=O	242 to 246
CSc1ccc(-n2cnc(-c3ccc(F)cc3)c2-c2ccncc2)cc1	172 to 173
N[C@@H](Cc1ccc(C(F)(F)F)c(F)c1)[C@H](O)c1ccc(F)cc1 (racemic)	86 to 87
CCCCNc1cc(Cl)nnc1NN	170 to 172
O=C1c2ccccc2C(=O)N1CC#Cc1ccc2c(c1)C(c1ccccc1F)=NCc1nnc(C(F)(F)F)n1-2	204 to 206
CCCSc1nc(-c2ccc(OC)cc2)c(-c2ccc(OC)cc2)s1	58 to 60
O=C1CCC(N2C(=O)c3cccc(OCc4ccc(CN5CCN(S(=O)(=O)C(F)(F)F)CC5)cc4)c3C2=O)C(=O)N1 (centres undefined)	229 to 231
CSc1ncnc2c(N(C)C)nc(Cl)nc12	166 to 168
CNC(=O)C(CC(O)CO)N(CCN(CCN(CCN(CC(=O)O)C(CC(O)CO)C(=O)NC)CC(=O)O)CC(=O)O)CC(=O)O (centres undefined)	86 to 92
O=C(O)N1C=CC=NC=C1	238 to 240
COc1cc(C)c(C(O)c2c(C(F)(F)F)cnc(Cl)c2Cl)c(OC)c1OC (centres undefined)	95 to 98
Cc1cccc2c1N(CC(=O)N1CC3CCC(CC3)C1)CC(NC(=O)Nc1cccc(Br)c1)N=C2c1ccccc1F (centres undefined)	> 250
CC(=NO)c1cc2c(s1)CCCN(CCCCN1CCN(c3ncccn3)CC1)C2=O	144 to 146

SMILES	melting point [°C]
CCCc1c(OCCCCCc2c(O)c(O)cc(Cl)c2Cl)ccc(C(=O)O)c1O	159 to 164
COc1ccc(CNc2nc(COCC(=O)O)nc3sc4c(c23)CCCC4)cc1Cl	136 to 137
Cc1c(CNCC(C)(C)O)[nH]c2c(C)c(NC(=O)c3ccc(OC[C@@H]4CCCO4)cc3F)ccc12	151 to 152
COC(N)=CC(=O)C(C)(C)C	79 to 79.5
COc1ccc(NC2=NC(C)(C)Cc3cc(OC)c4c(c32)CC(C)(C)O4)cc1	139 to 140
COc1ccc(CNc2ccc(C(=O)Nc3cccc4cc(C(=O)Nc5cc(C(C)(C)C)cc(NS(C)(=O)=O)c5OC)sc34)cn2)cc1	137 to 139
CC(C)N1CCC(C(C(N)=O)(c2ccccc2)c2ccccc2)C1 (centres undefined)	110 to 112
CC12CCC(=O)N1CCCN2C(=O)C(Cl)Cl (centres undefined)	144 to 147
Cc1cc(-c2ccc(-c3ccco3)cc2)n(-c2ccc(S(N)(=O)=O)cc2)c1	153 to 155
CCCC[C@H](NS(=O)(=O)c1ccc(Br)cc1)C(=S)Nc1ccc(CC(=O)O)cc1	194 to 195
O=C(NN=C(c1ccc(Cl)cc1)c1ccc(OC(F)(F)C(Cl)Cl)cc1)OCC(Cl)(Cl)Cl	97 to 103
O=C(Nc1cc(-c2c(-c3ccc(F)cc3)nc3cccnn23)ccn1)c1ccncc1	226 to 227
CCCOc1ccccc1N1CCN(CCCCn2c(=O)[nH]c(=O)c3ccccc32)CC1	68
CC(C)(C)OC(=O)C[C@H](NC(=O)CNC(=O)c1csc(NC(=O)NCc2ccccc2)n1)C(=O)NCc1cccnc1	185
COc1ccc(CCOc2ccc(NC(=O)c3cc(F)cc(N4CCOCC4)c3)c3ccccc23)cc1OC	73 to 75
COc1ccc2c(c1)CCC(=O)N(C(C)=O)CCCC2=O	156 to 158
O=C1N(Cc2nnc(-c3ccc(Cl)cc3)o2)c2ccccc2C12COc1cc3c(cc12)OCO3 (centres undefined)	161 to 162
Cc1ncc(Cn2c(NC3CCNCC3)nc3ccccc32)o1	227
O=C(O)C(Cl)(Cl)CCCCCCCCCCc1ccccc1	157 to 159
CC(=O)Nc1cc2c(cc1[N+](=O)[O-])OCOC2	158 to 159
CC(C)(C)OC(=O)N1CCc2c(n(CCO)c3cc(Cl)c(Cl)cc23)CC1	130 to 133

Next, values leading:

melting point [°C]	SMILES
191 to 192	CC[C@@]12C[C@H](O)[C@](O)(c3ccccc3)C[C@H]1CCc1cc(O)ccc12
133 to 135	O=C(N1CCN(Cc2ccccc2)CC1)N1CC(Oc2ccc(Br)cc2)C1
229 to 232	O=C(Nc1cccc([N+](=O)[O-])c1)c1ccc([N+](=O)[O-])cc1
189 to 190	CC(C)n1nc(-c2sc(NC(C)(C)C)nc2-c2ccccc2)ccc1=O
225 to 230	CCOC(=O)c1ncc2[nH]c3ccc(C(=S)N4CCCCC4)cc3c2c1C
90 to 92	CN1CCc2ccc(O)cc2[C@@H](c2ccccc2)C1
107 to 109	O=C(C=P(c1ccccc1)(c1ccccc1)c1ccccc1)COc1ccccc1Cl
114 to 115	ClCc1ccc(OCc2cn3c(Cl)cccc3n2)cc1
146	CSc1cccc(C(=C2CN(C(c3ccccc3)c3ccccc3)C2)S(C)(=O)=O)c1
130 to 131	NC(=O)CC1CN=C(c2cc3cccc(NS(=O)(=O)c4cccs4)c3[nH]2)S1 (centres undefined)
90 to 93	O=C(c1ccccc1)c1ccccc1N1C=NC(CCl)(C(=O)O)N1 (centres undefined)
148 to 152	CCCCCCCOc1ccc(CNc2ccc(C(=O)O)cc2)cc1
132 to 133	CN1CCC(c2nn(C(=O)c3ccc(F)cc3)c3ccccc23)CC1
155 to 156	O=C(NCCO)c1cccc(-c2cncc3cc(Cc4cccc(C(F)(F)F)c4)oc23)c1
155 to 157	COc1ccc(-n2nc(N3CCN(C(N)=O)CC3)c3ccccc32)cc1
230 to 233	O=C(O)COc1ccc2c(-c3ccco3)noc2c1Cl
123 to 125	O=C1NOCc2ccccc21
128 to 132	CC(=O)NC(Cc1ccccc1)C(=O)NC(C)C(=O)O (centres undefined)
154 to 155	CSc1ccc(/C=C2\N=C(C)OC2=O)cc1
235 to 236	CC(C)c1ccc2c(c1)[C@@H](NC(=O)c1ccc(F)cc1)[C@H](O)C(C)(C)O2 (relative stereo)
190 to 193	CC(C)n1c(-c2ccccc2)nc(-c2ccc(F)cc2)c1CO
227 to 228	CCOC(=O)N(CCNc1ccc2ncc(-c3ccc(C(N)=O)cc3)n2n1)c1ccccc1
178 to 180	O=C(OCn1cc(F)c(=O)n(COC(=O)c2ccccc2)c1=O)c1ccccc1
234 to 236	CN(C)c1ccc(-c2ccccc2C(=O)O)nc1
197 to 198	COc1cccc(-c2nc(NO)nc(Nc3cccc([N+](=O)[O-])c3)n2)c1
109 to 110	COCOc1ccccc1-c1cc(-c2ccccc2C(=O)OC)c(C#N)c(N)n1
